Measurements published in patent publication US10544130B2, “Metallo-beta-lactamase inhibitors” (priority 2015, dated 2020).
Counter-ions that a name gives are not always drawn.

The compounds below were run on Pseudomonas aeruginosa PAO1 MB9798 (efflux+, IMP-1). Conditions: fold difference between efflux + (MB9798) and efflux − (MB9799) strains; imipenem at 2 μg/mL.
Description: The strain background was Pseudomonas aeruginosa PAO1.
The strain set was then used as a pair to determine the effect of metallo-β-lactamase inhibitors of Formula I on the MIC of imipenem and/or ceftazidime. A fixed concentration of antibiotic was included in standard microbroth MIC tests, usually at the CLSI (Clinical and Laboratory Standards Institute) breakpoint concentration. A fixed amount of a class A/C beta-lactamase inhibitor was also included to inhibit the resident Pseudomonas AmpC enzyme. A serial titration of the metallo-β-lactamase inhibitor was included and the concentration of metallo-β-lactamase inhibitor which restores susceptibility of the strain to the included antibiotic was recorded. That concentration of metallo-β-lactamase inhibitor was then compared between the two strains to determine the fold difference between the efflux + (MB9798) and efflux − (MB9799) strains. This was taken as an indication of the extent to which the MBLi is subject to efflux.
Compound `C[N+](C)(C)CCNS(=O)(=O)c1ccc(-c2cccc3sc(N)nc23)c(-c2nnn[nH]2)c1S(N)(=O)=O` [Example 391, 2-({[4-(2-amino-1,3-benzothiazol-4-yl)-2-sulfamoyl-3-(1H-tetrazol-5-yl)phenyl]sulfonyl}amino)-N,N,N-trimethylethanaminium trifluoroacetate] has an Efflux ratio of 1.00.

Same assay, conditions: ratio MITC95 PA 9798/MITC95 PA 9799; imipenem at 2 μg/mL
Work on `NS(=O)(=O)c1c(S(=O)(=O)N[C@@H]2CCNC2)ccc(-c2cccc3[nH]nnc23)c1-c1nn[nH]n1` [Example 235, (R)-4-(1H-benzo[d][1,2,3]triazol-4-yl)-N^1-(pyrrolidin-3-yl)-3-(2H-tetrazol-5-yl)benzene-1,2-disulfonamide] yielded an Efflux ratio of 0.50. `NS(=O)(=O)c1c(S(=O)(=O)N[C@@H]2CCNC2)ccc(-c2cccc3[nH]cnc23)c1-c1nn[nH]n1` [Example 193, 4-(1H-benzo[d]imidazol-4-yl)-N1-((R)-pyrrolidin-3-yl)-3-(2H-tetrazol-5-yl)benzene-1,2-disulfonamide] gave an Efflux ratio of 1.00. `NC(=O)[C@H](N)CNS(=O)(=O)c1ccc(-c2cccc3[nH]c(N)nc23)c(-c2nn[nH]n2)c1S(N)(=O)=O` [Example 188, (2R)-2-amino-3-(4-(2-amino-1H-benzo[d]imidazol-4-yl)-2-sulfamoyl-3-(2H-tetrazol-5-yl)phenylsulfonamido)propanamide] was tested, and the Efflux ratio was 0.50. `CN(CCc1ccncc1)S(=O)(=O)c1ccc(-c2cccc3sc(N)nc23)c(-c2nnn[nH]2)c1S(N)(=O)=O.O=C(O)C(F)(F)F` [Example 100, 4-(2-(4-(2-aminobenzo[d]thiazol-4-yl)-N-methyl-2-sulfamoyl-3-(1H-tetrazol-5-yl)phenylsulfonamido)ethyl)pyridin-1-ium 2,2,2-trifluoroacetate] showed an Efflux ratio of 32.00. Compound `C[N+]1(C)CC[C@H](NS(=O)(=O)c2ccc(-c3cccc4[nH]c(N)nc34)c(-c3nn[n-]n3)c2S(N)(=O)=O)C1` [Example 166, (S)-5-(6-(2-amino-1H-benzo[d]imidazol-4-yl)-3-(N-(1,1-dimethylpyrrolidin-1-ium-3-yl)sulfamoyl)-2-sulfamoylphenyl)tetrazol-2-ide] has an Efflux ratio of 1.00. `Nc1nc2c(-c3ccc(S(=O)(=O)N4CCNC(=O)C4)c(S(N)(=O)=O)c3-c3nnn[nH]3)cccc2s1` [Example 28, 3-(2-amino-1,3-benzothiazol-4-yl)-6-[(3-oxopiperazin-1-yl)sulfonyl]-2-(1H-tetrazol-5-yl)benzenesulfonamide] showed an Efflux ratio of 4.00. For `NC[C@@H](CO)NS(=O)(=O)c1ccc(-c2cccc3sc(N)nc23)c(-c2nnn[nH]2)c1S(N)(=O)=O` [Example 201, (S)—N^1-(1-amino-3-hydroxypropan-2-yl)-4-(2-aminobenzo[d]thiazol-4-yl)-3-(1H-tetrazol-5-yl)benzene-1,2-disulfonamide], the Efflux ratio was 0.50. With `NS(=O)(=O)c1c(S(=O)(=O)N[C@@H]2CCNC2)ccc(-c2cccc3nc(O)[nH]c23)c1-c1nnn[nH]1` [Example 130, (R)-4-(2-hydroxy-1H-benzo[d]imidazol-7-yl)-N1-(pyrrolidin-3-yl)-3-(1H-tetrazol-5-yl)benzene-1,2-disulfonamide] the Efflux ratio was 0.50. In the case of `NS(=O)(=O)c1c(S(=O)(=O)N[C@@H]2CCNC2)ccc(-c2ccc3c(c2)C(=O)NC3)c1-c1nnn[nH]1` [Example 138, (R)-4-(3-oxoisoindolin-5-yl)-N1-(pyrrolidin-3-yl)-3-(1H-tetrazol-5-yl)benzene-1,2-disulfonamide], the Efflux ratio is reported as 1.00. For `Nc1nc2c(-c3ccc(S(=O)(=O)N[C@H]4CCNC4)c(S(N)(=O)=O)c3-c3nnn[nH]3)cccc2s1` [Example 60, 4-(2-amino-1,3-benzothiazol-4-yl)-N1-[(3S)-pyrrolidin-3-yl]-3-(1H-tetrazol-5-yl)benzene-1,2-disulfonamide], the Efflux ratio was 0.50. `Nc1nc2c(-c3ccc(S(=O)(=O)NCCN4CCNC(=O)C4)c(S(N)(=O)=O)c3-c3nnn[nH]3)cccc2s1` [Example 15, 4-(2-amino-1,3-benzothiazol-4-yl)-N1-[2-(3-oxopiperazin-1-yl)ethyl]-3-(1H-tetrazol-5-yl)benzene-1,2-disulfonamide] gave an Efflux ratio of 1.00. `CN(C)CC(F)(F)CNS(=O)(=O)c1ccc(-c2cccc3sc(N)nc23)c(-c2nnn[nH]2)c1S(N)(=O)=O` [Example 16, 4-(2-amino-1,3-benzothiazol-4-yl)-N1-[3-(dimethylamino)-2,2-difluoropropyl]-3-(1H-tetrazol-5-yl)benzene-1,2-disulfonamide] was tested, and the Efflux ratio was 16.00. In the case of `Nc1ccc(-c2ccc(S(=O)(=O)NC[C@H]3CNCCN3)c(S(N)(=O)=O)c2-c2nn[nH]n2)cn1` [Example 315, (R)-4-(6-aminopyridin-3-yl)-N1-(piperazin-2-ylmethyl)-3-(1H-tetrazol-5-yl)benzene-1,2-disulfonamide], the Efflux ratio is reported as 1.00. With `Nc1nc2c(-c3ccc(S(=O)(=O)NCC4(N)CCOCC4)c(S(N)(=O)=O)c3-c3nnn[nH]3)cccc2s1.O=CO` [Example 115, 4-((4-(2-aminobenzo[d]thiazol-4-yl)-2-sulfamoyl-3-(1H-tetrazol-5-yl)phenylsulfonamido)methyl)tetrahydro-2H-pyran-4-aminium formate] the Efflux ratio was 1.00. In the case of `NC[C@@H]1CCN(S(=O)(=O)c2ccc(-c3cccc4sc(N)nc34)c(-c3nnn[nH]3)c2S(N)(=O)=O)C1` [Example 70, 3-(2-amino-1,3-benzothiazol-4-yl)-6-{[(3S)-3-(aminomethyl)pyrrolidin-1-yl]sulfonyl}-2-(1H-tetrazol-5-yl)benzenesulfonamide], the Efflux ratio is reported as 1.00. `NCC(F)(F)CNS(=O)(=O)c1ccc(-c2cccc3sc(N)nc23)c(-c2nnn[nH]2)c1S(N)(=O)=O` [Example 47, 4-(2-amino-1,3-benzothiazol-4-yl)-N1-(3-amino-2,2-difluoropropyl)-3-(1H-tetrazol-5-yl)benzene-1,2-disulfonamide] was tested, and the Efflux ratio was 1.00. In the case of `Nc1nc2c(-c3ccc(S(=O)(=O)N[C@@H]4CNC[C@@H]4O)c(S(N)(=O)=O)c3-c3nnn[nH]3)cccc2[nH]1` [Example 170, 4-(2-amino-1H-benzo[d]imidazol-4-yl)-N^1-((3R,4S)-4-hydroxypyrrolidin-3-yl)-3-(1H-tetrazol-5-yl)benzene-1,2-disulfonamide], the Efflux ratio is reported as 1.00. `C[C@H](N)CC(=O)NS(=O)(=O)c1ccc(-c2cccc3[nH]c(N)nc23)c(-c2nn[nH]n2)c1S(N)(=O)=O` [Example 208, (S)-3-amino-N-((4-(2-amino-1H-benzo[d]imidazol-4-yl)-2-sulfamoyl-3-(2H-tetrazol-5-yl)phenyl)sulfonyl)butanamide] was tested, and the Efflux ratio was 1.00. Work on `Cn1c(N)nc2c(-c3ccc(S(=O)(=O)N[C@H]4CCNC4)c(S(N)(=O)=O)c3-c3nn[nH]n3)cccc21` [Example 163, 4-(2-amino-1-methyl-1H-benzo[d]imidazol-4-yl)-N^1-((S)-pyrrolidin-3-yl)-3-(2H-tetrazol-5-yl)benzene-1,2-disulfonamide] yielded an Efflux ratio of 1.00. In the case of `Nc1nc2c(-c3ccc(S(=O)(=O)NC4C5CNCC54)c(S(N)(=O)=O)c3-c3nnn[nH]3)cccc2s1.O=C(O)C(F)(F)F` (stereo not shown) [Example 111, 6-(4-(2-aminobenzo[d]thiazol-4-yl)-2-sulfamoyl-3-(1H-tetrazol-5-yl)phenylsulfonamido)-3-azabicyclo[3.1.0]hexan-3-ium 2,2,2-trifluoroacetate], the Efflux ratio is reported as 0.50. `Nc1nc2c(-c3ccc(S(=O)(=O)NCCC(N)C(F)(F)F)c(S(N)(=O)=O)c3-c3nnn[nH]3)cccc2s1` (stereo not shown) [Example 49, 4-(2-amino-1,3-benzothiazol-4-yl)-N1-(3-amino-4,4,4-trifluorobutyl)-3-(1H-tetrazol-5-yl)benzene-1,2-disulfonamide] gave an Efflux ratio of 8.00. `Nc1nc2c(-c3ccc(S(=O)(=O)N4CCC(CO)CC4)c(S(N)(=O)=O)c3-c3nnn[nH]3)cccc2s1` [Example 25, 3-(2-amino-1,3-benzothiazol-4-yl)-6-{[4-(hydroxymethyl)piperidin-1-yl]sulfonyl}-2-(1H-tetrazol-5-yl)benzenesulfonamide] was tested, and the Efflux ratio was 16.00. `NCCNS(=O)(=O)c1ccc(-c2cccc3cn[nH]c23)c(-c2nn[nH]n2)c1S(N)(=O)=O` [Example 9, N^1-(2-aminoethyl)-4-(1H-indazol-7-yl)-3-(2H-tetrazol-5-yl)benzene-1,2-disulfonamide] was tested, and the Efflux ratio was 0.50. Work on `Nc1ccc2cccc(-c3ccc(S(=O)(=O)N[C@@H]4CNC[C@@H]4N)c(S(N)(=O)=O)c3-c3nn[nH]n3)c2n1` [Example 319, N^1-((3R,4S)-4-aminopyrrolidin-3-yl)-4-(2-aminoquinolin-8-yl)-3-(2H-tetrazol-5-yl)benzene-1,2-disulfonamide] yielded an Efflux ratio of 1.00. With `C[C@@H](CN)NS(=O)(=O)c1ccc(-c2cccc3[nH]c(N)nc23)c(-c2nn[nH]n2)c1S(N)(=O)=O` [Example 186, 4-(2-amino-1H-benzo[d]imidazol-4-yl)-N^1—((S)-1-aminopropan-2-yl)-3-(2H-tetrazol-5-yl)benzene-1,2-disulfonamide] the Efflux ratio was 2.00. In the case of `Nc1nc2c(-c3ccc(S(=O)(=O)NC[C@@H](N)C(=O)O)c(S(N)(=O)=O)c3-c3nn[nH]n3)cccc2s1` [Example 154, (R)-2-amino-3-((4-(2-aminobenzo[d]thiazol-4-yl)-2-sulfamoyl-3-(2H-tetrazol-5-yl)phenyl)sulfonamido) propanoic acid], the Efflux ratio is reported as 0.50. `NC[C@@H]1CCN(S(=O)(=O)c2ccc(-c3cccc4sc(N)nc34)c(-c3nnn[nH]3)c2S(N)(=O)=O)C1.O=C(O)C(F)(F)F` [Example 94, (S)-(1-((4-(2-aminobenzo[d]thiazol-4-yl)-2-sulfamoyl-3-(1H-tetrazol-5-yl)phenyl)sulfonyl)pyrrolidin-3-yl)methanaminium 2,2,2-trifluoroacetate] showed an Efflux ratio of 1.00.
